Patent US11642332B2, “(2R,4R)-5-(5′-chloro-2′-fluorobiphenyl-4-yl)-2-hydroxy-4-[(5-methyloxazole-2-carbonyl)amino]pentanoic acid” (THERAVANCE BIOPHARMA R&D IP, LLC, priority 2015, dated 2023)

Columns and labels:
[1] = molecular target: T1, human neprilysin (EC 3.4.24.11; NEP) (Homo sapiens, UniProt P08473); experiment: In vitro assay for the quantitation of inhibitor potency at human NEP; format: biochemical; settings: recombinant human NEP, fluorogenic peptide substrate 10 μM, 37° C.; read-out: pKi at human NEP (converted)
T1 construct: purchased R&D Systems 1182-ZN
T1 sequence (P08473 52-750 limits assumed): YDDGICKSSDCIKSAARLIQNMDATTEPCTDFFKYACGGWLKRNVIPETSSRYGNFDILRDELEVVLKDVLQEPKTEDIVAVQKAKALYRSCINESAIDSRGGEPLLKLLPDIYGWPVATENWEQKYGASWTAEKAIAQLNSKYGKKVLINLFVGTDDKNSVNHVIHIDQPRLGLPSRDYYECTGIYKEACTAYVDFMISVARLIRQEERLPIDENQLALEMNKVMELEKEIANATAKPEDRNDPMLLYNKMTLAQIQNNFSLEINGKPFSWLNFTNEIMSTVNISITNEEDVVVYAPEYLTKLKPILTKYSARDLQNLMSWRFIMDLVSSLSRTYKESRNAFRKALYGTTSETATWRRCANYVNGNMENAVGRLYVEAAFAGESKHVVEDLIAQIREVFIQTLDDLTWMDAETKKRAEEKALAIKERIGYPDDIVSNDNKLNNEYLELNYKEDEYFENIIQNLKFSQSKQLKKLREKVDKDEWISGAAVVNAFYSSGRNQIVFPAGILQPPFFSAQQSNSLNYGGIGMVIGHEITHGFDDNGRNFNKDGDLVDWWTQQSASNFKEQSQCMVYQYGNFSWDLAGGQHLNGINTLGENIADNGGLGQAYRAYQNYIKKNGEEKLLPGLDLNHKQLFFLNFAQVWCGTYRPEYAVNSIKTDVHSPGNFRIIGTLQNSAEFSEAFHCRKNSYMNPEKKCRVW
Description: The inhibitory activity at human neprilysin (EC 3.4.24.11; NEP) was determined as follows.
Recombinant human NEP was obtained commercially (R&D Systems, Minneapolis, Minn., catalog number 1182-ZN). The fluorogenic peptide substrate Mca-D-Arg-Arg-Leu-Dap-(Dnp)-OH (Medeiros et al. (1997) Braz. J. Med. Biol. Res. 30:1157-62; Anaspec, San Jose, Calif.) was used.
The assay was performed in 384-well white opaque plates at 37° C. using the fluorogenic peptide substrate at a concentration of 10 μM in Assay Buffer (50 mM HEPES, pH 7.5, 100 mM NaCl, 0.01% polyethylene glycol sorbitan monolaurate (Tween-20), 10 μM ZnSO4).
Test compounds were assayed over the range of concentrations from 10 μM to 20 pM. Test compounds were added to the enzyme and incubated for 30 minute at 37° C. prior to initiating the reaction by the addition of substrate. Reactions were terminated after 20 minutes of incubation at 37° C. by the addition of glacial acetic acid to a final concentration of 3.6% (v/v).
Plates were read on a fluorometer with excitation and emission wavelengths set to […]. Inhibition constants were obtained by nonlinear regression of the data using the equation (GraphPad Software, Inc., San Diego, Calif.): v=v0/[1+(I/K′)] where v is the reaction rate, v0 is the uninhibited reaction rate, I is the inhibitor concentration and K′ is the apparent inhibition constant.
The compounds were tested in this assay and found to have pKi values at human NEP as follows.

[2] = IV/PO pharmacokinetic study in rats; format: in vivo, male Sprague-Dawley rats; set-up: AUC(0-t): concentration or dose not given beside the values; settings: rat; for AUC(0-t) / bioavailability: male, Sprague-Dawley, plasma; for AUC(0-t): read-out: AUClast Mean; for bioavailability: PO vs IV AUClast; for CLlast Mean: dose divided by AUClast
Description: (§1) Each rat or dog PK study began with formulation of the test compound. Appropriate masses of each test compound were added into a volume of vehicle (e.g. 5% sodium bicarbonate, 5% dextrose in H2O) such that the final concentration of each compound was appropriate to be dosed at 2 mL/kg. Although a homogenous suspension were acceptable for oral dosing, intravenous dosing solutions were sterile-filtered (0.2 μm) prior to dosing to ensure no particulates were administered.
In the rat study, pre-cannulated male Sprague-Dawley rats (3 per route) between 8 and 10 weeks of age were obtained from Harlan Laboratories (Indianapolis, Ind.). Rats received either a single oral gavage or a single intravenous (via lateral tail vein) dose of the dosing solution. The final dose was typically 0.5-3 mg/kg. Serial blood samples were harvested via the cannula implanted in the jugular vein at 3 minutes, 15 minutes, 30 minutes, 1 hour, 2 hours, 4 hours, 6 hours, and 24 hours post-dose. Sampling was performed either manually or using automated blood samplers. Samples were collected into microtainer tubes containing EDTA as the anticoagulant and were processed to plasma by refrigerated centrifugation.
(§2) Plasma samples were extracted with 3 volumes of MeCN containing a suitable internal standard. Extracts were reconstituted into 3 volumes of water containing 1% formic acid, and analyzed via HPLC-coupled MS/MS. Plasma concentration-time data were analyzed using the Phoenix software (Pharsight Corp., St. Louis, Mo.) to calculate pharmacokinetic parameters.
(§3) Plasma clearance was determined from the intravenous arm of the study, and represents the rate at which plasma is cleared of drug. It is equal to the dose divided by the area under the plasma concentration-time curve. In addition to plasma clearance, it is also essential for an orally administered drug to reach efficacious systemic levels following oral delivery. Oral bioavailability is a measurement of plasma exposures following oral administration relative to exposures following intravenous administration.

[3] = IV/PO pharmacokinetic study in dogs; format: in vivo, male beagle dogs; set-up: AUC(0-t): concentration or dose not given beside the values; settings: dog; for AUC(0-t) / bioavailability: male, beagle, plasma; for AUC(0-t): read-out: AUClast Mean; for bioavailability: PO vs IV AUClast
Description: as §1
In the dog study, male beagle dogs (3 per route) housed at Agilux Laboratories (Worcester, Mass.) and weighing between 7-12 kg received either a single oral gavage or a single intravenous (via indwelling catheter) dose of the dosing solution. The final dose was typically 0.1-2 mg/kg. Serial blood samples were harvested via direct venipuncture at 3 minutes, 15 minutes, 30 minutes, 1 hour, 2 hours, 4 hours, 6 hours, 8 hours, 12 hours, and 24 hours post-dose. All samples were collected manually into microtainer tubes containing EDTA as the anticoagulant and were processed to plasma by refrigerated centrifugation.
as §2, §3

NEP = molecular target: T2, NEP (Rattus norvegicus, UniProt P07861); experiment: PK-PD assay for NEP activity in conscious normotensive Sprague-Dawley rats (plasma cGMP after ANP bolus); format: in vivo, male Sprague-Dawley rats; settings: rat plasma, 3 mg/kg oral, 15 min after IV ANP bolus (30 μg/kg); average of three determinations
T2 construct: Pre-cannulated male Sprague-Dawley rats (3 per compound evaluated) between 8 and 10 weeks of age were obtained from Harlan Laboratories; from tissue; host or cells: whole animal: conscious male Sprague-Dawley rats (Harlan Laboratories)
T2 sequence (P07861 1-750): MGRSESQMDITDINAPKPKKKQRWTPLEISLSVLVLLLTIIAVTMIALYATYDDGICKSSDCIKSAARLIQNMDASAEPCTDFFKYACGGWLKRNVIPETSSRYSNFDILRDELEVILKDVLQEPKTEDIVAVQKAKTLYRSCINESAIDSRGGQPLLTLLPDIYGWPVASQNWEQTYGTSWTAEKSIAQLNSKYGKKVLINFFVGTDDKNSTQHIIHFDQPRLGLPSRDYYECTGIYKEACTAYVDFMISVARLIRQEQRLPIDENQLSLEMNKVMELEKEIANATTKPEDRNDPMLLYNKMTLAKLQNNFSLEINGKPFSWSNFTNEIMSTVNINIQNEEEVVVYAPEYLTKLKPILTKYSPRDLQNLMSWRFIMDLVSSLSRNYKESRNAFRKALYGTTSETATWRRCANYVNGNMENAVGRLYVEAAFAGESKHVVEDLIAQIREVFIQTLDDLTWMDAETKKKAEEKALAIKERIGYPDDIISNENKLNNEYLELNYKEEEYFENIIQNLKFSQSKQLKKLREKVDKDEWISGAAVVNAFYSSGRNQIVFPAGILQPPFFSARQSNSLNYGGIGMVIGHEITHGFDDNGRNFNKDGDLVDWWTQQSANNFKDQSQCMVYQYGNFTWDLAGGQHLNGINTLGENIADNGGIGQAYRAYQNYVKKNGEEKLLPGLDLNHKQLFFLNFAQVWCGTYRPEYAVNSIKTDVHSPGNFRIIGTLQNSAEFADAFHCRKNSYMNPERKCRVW
Description: Appropriate masses of each test compound were added into a volume of vehicle (e.g. 5% sodium bicarbonate, 5% dextrose in H2O) such that the final concentration of each compound was appropriate to be dosed at 2 mL/kg. Note that a homogenous suspension was deemed to be acceptable for oral dosing.
Pre-cannulated male Sprague-Dawley rats (3 per compound evaluated) between 8 and 10 weeks of age were obtained from Harlan Laboratories (Indianapolis, Ind.). Rats received a single oral gavage of the dosing solution. The final dose was typically in the range of 3-30 mg/kg. Serial blood samples were harvested via the cannula implanted in the jugular vein at 3 minutes, 15 minutes, 35 minutes, 45 minutes, 1 hour, 2 hours, 4 hours, 6 hours, and 24 hours post-dose. Samples were collected into microtainer tubes containing EDTA as the anticoagulant and were processed to plasma by refrigerated centrifugation. Fifteen minutes prior to the 45 minute, 2 hour, 4 hour, 6 hour, and 24 hour samples, an IV bolus (30 μg/kg) of Atrial Natriuretic Peptide (ANP) was administered. […] Since binding of ANP to its receptor leads to activation of guanylyl cyclase and subsequent production of cyclic guanosine monophosphate (cGMP), the observation of elevated levels of cGMP (>20 nM) in plasma 15 minutes after the IV administration of the ANP bolus was interpreted as evidence of ongoing neprilysin inhibition. Elevated levels plasma cGMP levels 24 hours after dosing is an indicator of the duration pharmacologic effect, analogous to plasma clearance values as indicators of pharmacokinetic persistence.
Plasma samples were extracted with 3 volumes of MeCN containing a suitable internal standard. Extracts were reconstituted into 3 volumes of water containing 1% formic acid. Plasma cGMP and test compound concentrations were quantified in plasma samples by HPLC-coupled mass spectrometric detection.

[4] = Dynamic moisture sorption (DMS) assessment; format: physicochemical
Description: DMS measurements were performed using a VTI atmospheric microbalance, SGA-100 system (VTI Corp., Hialeah, Fla. 33016). A weighed sample was used and the humidity was lowest possible value (close to 0% relative humidity) at the start of the analysis. The DMS analysis consisted of a scan rate of 5% relative humidity/step over the full humidity range of 5-90%. The DMS run was performed isothermally at 25° C.

Row | SMILES | Ki [1] [pM] | AUC(0-t) ([2]; IV) [ng·h/mL] | bioavailability [2] [%] | AUC(0-t) ([2]; PO) [ng·h/mL] | CLlast Mean ([2]; IV) [mL/min/kg] | CLlast Mean ([3]; IV) [mL/min/kg] | AUC(0-t) ([3]; IV) [ng·h/mL] | bioavailability [3] [%] | AUC(0-t) ([3]; PO) [ng·h/mL] | cGMP Concentration 24 hours After Dosing Mean (NEP) [nM] | total moisture gain ([4]; 5-70% relative humidity, 25° C.) | total moisture gain ([4]; 5-90% relative humidity, 25° C.) | hygroscopicity (DMS isotherm) ([4]; 25° C.) | solid form (PXRD) after sorption-desorption cycles ([4]; after two sorption-desorption cycles)
1 | COc1cc(C(=O)N[C@H](Cc2ccc(-c3cc(Cl)ccc3F)cc2)C[C@@H](O)C(=O)O)on1 [Comparison Compound C2, (2R,4R)-5-(5′-Chloro-2′-fluorobiphenyl-4-yl)-2-hydroxy-4-[(3-methoxyisoxazole-5-carbonyl)amino]pentanoic Acid] | 126 | 480 | 20 | 110 | 28.3 | 10.8 | 160 | 99 | 160 | 45 |  |  |  | 
2 | CCc1ncc(C(=O)N[C@H](Cc2ccc(-c3cc(Cl)ccc3F)cc2)C[C@@H](C)C(=O)O)o1 [Comparison Compound C3, (2R,4S)-5-(5′-Chloro-2′-fluorobiphenyl-4-yl)-4-[(2-ethyloxazole-5-carbonyl)amino]-2-methylpentanoic Acid] | 794 | 1500 | 60 | 880 | 10 | 9.83 | 170 | 64 | 130 | 47 |  |  |  | 
3 | C[C@H](C[C@@H](Cc1ccc(-c2cc(Cl)ccc2F)cc1)NC(=O)c1cnco1)C(=O)O [Comparison Compound C4, (2R,4S)-5-(5′-Chloro-2′-fluorobiphenyl-4-yl)-2-methyl-4-[(oxazole-5-carbonyl)amino]pentanoic Acid] | 501 | 830 | 60 | 500 | 11.2 | 25.7 | 70 | 42 | 30 | 53 |  |  |  | 
4 | Cc1cnc(C(=O)N[C@H](Cc2ccc(-c3cc(Cl)ccc3F)cc2)C[C@@H](O)C(=O)O)o1 [Compound 1′, (2R,4R)-5-(5′-Chloro-2′-fluorobiphenyl-4-yl)-2-hydroxy-4-[(5-methyloxazole-2-carbonyl)amino]pentanoic Acid] |  |  |  |  |  |  |  |  |  |  | less than 0.025 % by weight | less than 0.235 % by weight | non-hygroscopic solid | no change in form
